Molecular target: T1, human vasopressin V1a receptor subtype (Homo sapiens, UniProt P37288)
T1 construct: host or cells: CHO cells (pZeoSV vector for the Thibonnier line)
Test: Vasopressin binding in Chinese Hamster Ovary cell membranes expressing human vasopressin V1a subtype receptors
Conditions: 100 nM, CHO cell membranes, [3H]Manning ligand, values without parentheses
Method in brief: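 Membranes from CHO cells expressing human V1a receptor were incubated with [3H]Manning ligand (added as 20 μL of 8 nM) in pH 7.4 Tris buffer with MgCl2, BSA and protease inhibitors, 60 min at room temperature. Bound radioactivity was counted after filtration; values are percent inhibition at a stated concentration or IC50.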

T1 sequence (P37288 whole entry): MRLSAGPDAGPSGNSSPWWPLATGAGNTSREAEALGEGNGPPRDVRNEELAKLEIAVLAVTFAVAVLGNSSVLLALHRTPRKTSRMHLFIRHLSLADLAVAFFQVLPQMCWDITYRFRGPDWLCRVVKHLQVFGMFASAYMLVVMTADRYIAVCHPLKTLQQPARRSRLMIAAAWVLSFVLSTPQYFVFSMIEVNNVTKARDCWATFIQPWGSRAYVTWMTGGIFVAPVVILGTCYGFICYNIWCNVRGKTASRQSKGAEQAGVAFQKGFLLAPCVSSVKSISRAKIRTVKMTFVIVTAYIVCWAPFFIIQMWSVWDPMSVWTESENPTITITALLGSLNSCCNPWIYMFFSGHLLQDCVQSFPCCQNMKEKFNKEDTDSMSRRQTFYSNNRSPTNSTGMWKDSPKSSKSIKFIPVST

For `COC(=O)c1ccc2c(c1)N(C(=O)c1ccc(-c3ccccc3C(F)(F)F)c(C)c1)Cc1cccn1C2` [Example 26, Methyl 10-{[2-methyl-2′-trifluoromethyl-[1,1′-biphenyl]-4-yl]carbonyl}-10,11-dihydro-5H-pyrrolo[2,1-c][1.4]benzodiazepine-8-carboxylate], the “V1a % inhibition @ 100 nM” value was −3%.
With `COc1cc2c(cc1OC)N(C(=O)c1ccc(-c3ccccc3C(F)(F)F)c(C)c1)Cc1ccc(C(=O)N3CCC(=O)CC3)n1C2` [Example 14, 7,8-Dimethoxy-10-{[2-methyl-2′-(trifluoromethyl)-[1,1′-biphenyl]-4-yl]carbonyl}-[(10,11-dihydro-5H-pyrrolo[2,1-c][1,4]benzodiazepin-3-yl)carbonyl]-4-piperidinone] the “V1a % inhibition @ 100 nM” value was −16%.
`Cc1cc(C(=O)N2Cc3ccc(C(=O)N4CCC(N5CCCCC5)CC4)n3Cc3ccccc32)ccc1-c1ccccc1C(F)(F)F` [Example 122, {10-[(2-Methyl-2′-(trifluoromethyl) -[1,1′-biphenyl]-4-yl)carbonyl]-10,11-dihydro-5H -pyrrolo[2,1-c][1,4]benzodiazepin-3-yl}[4-(1-piperidinyl)-1-piperidinyl]methanone] showed an inhibition at 0.1 µM of 8%.
Compound `COc1cc(C(=O)N2Cc3ccc(C(=O)N4CCC(N5CCCCC5)CC4)n3Cc3ccccc32)ccc1-c1ccccc1C` [Example 116, {10-[(2-Methoxy-2′-methyl[1,1′-biphenyl]-4-yl)carbonyl]-10,11-dihydro-5H-pyrrolo[2,1-c][1,4]benzodiazepin-3-yl}[4-(1-piperidinyl)-1-piperidinyl]methanone] has an inhibition at 0.1 µM of 42%.
`COc1cc(C(=O)N2Cc3ccc(C(=O)NCCCn4ccnc4)n3Cc3ccccc32)ccc1-c1ccccc1C` [Example 128, N-[3-(1H-Imidazol-1-yl)propyl]-10-[(2-methoxy-2′-methyl[1,1′-biphenyl]-4-yl)carbonyl]-10,11-dihydro-5H-pyrrolo[2,1-c][1,4]benzodiazepine-3-carboxamide] was tested, and the inhibition at 0.1 µM was 18%.
“{10-[(2,2′-Dimethoxy[1,1′-biphenyl]-4-yl)carbonyl]-10,11-dihydro-5H-pyrrolo[2,1-c][1,4]benzodiazepin-3-yl}(4-isopropyl-1-piperazinyl)methanone [Example 244]” was tested, and the “V1a % inhibition @ 100 nM” value was 44%.
Work on `COc1ccccc1-c1ccc(C(=O)N2Cc3ccc(C(=O)N4CCC(N5CCCCC5)CC4)n3Cc3ccccc32)cc1OC` [Example 119, {10-[(2,2′-Dimethoxy-[1,1′-biphenyl]-4-yl)carbonyl]-10,11-dihydro-5H-pyrrolo[2,1-c][1,4]benzodiazepin-3-yl}[4-(1-piperidinyl)-1-piperidinyl]methanone] yielded an inhibition at 0.1 µM of 9%.
`COc1cc(C(=O)N2Cc3ccc(C(=O)N4CCC(N5CCCCC5)CC4)n3Cc3ccccc32)ccc1-c1cccc2ccccc12` [Example 118, {10-[3-Methoxy-4-(1-naphthyl)-benzoyl]-10,11-dihydro-5H-pyrrolo[2,1-c][1,4]benzodiazepin-3-yl}[4-(1-piperidinyl)-1-piperidinyl]methanone] gave an inhibition at 0.1 µM of 14%.
Compound `COc1ccccc1-c1ccc(C(=O)N2Cc3ccc(C(=O)N(C)CCCN(C)C)n3Cc3ccccc32)cc1OC` [Example 107, 10-[(2,2′-Dimethoxy[1,1′-biphenyl]-4-yl)carbonyl]-N-[3-(dimethylamino)propyl]-N-methyl-10,11-dihydro-5H-pyrrolo[2,1-c][1,4]benzodiazepine-3-carboxamide] has an inhibition at 0.1 µM of 15%.
`COc1cccc(-c2ccc(C(=O)N3Cc4ccc(C(=O)N5CCC(N6CCCC6)CC5)n4Cc4ccccc43)cc2OC)c1` [Example 146, {10-[(2,3′-Dimethoxy[1,1′-biphenyl]-4-yl)carbonyl]-10,11-dihydro-5H-pyrrolo[2,1-c][1,4]benzodiazepin-3-yl}[4-(1-pyrrolidinyl)-1-piperidinyl]methanone] was tested, and the inhibition at 0.1 µM was 37%.
`COc1ccccc1-c1ccc(C(=O)N2Cc3ccc(C(=O)N4CCC(N5CCCC5)CC4)n3Cc3ccccc32)cc1C` [Example 137, {10-[(2′-Methoxy-2-methyl[1,1′-biphenyl]-4-yl)carbonyl]-10,11-dihydro-5H-pyrrolo[2,1-c][1,4]benzodiazepin-3-yl}[4-(1-pyrrolidinyl)-1-piperidinyl]methanone] was tested, and the inhibition at 0.1 µM was 4%.
`CN(C)CCCN(C)C(=O)c1ccc2n1Cc1ccccc1N(C(=O)c1ccc(-c3cccc4ccccc34)cc1Cl)C2` [Example 109, 10-[2-Chloro-4-(1-naphthyl)benzoyl]-N-[3-(dimethylamino)propyl]-N-methyl-10,11-dihydro-5H-pyrrolo[2,1-c][1,4]benzodiazepine-3-carboxamide] gave an inhibition at 0.1 µM of 9%.
Compound `Cc1cc(C(=O)N2Cc3ccc(C(=O)N4CCC(N5CCCC5)CC4)n3Cc3ccccc32)ccc1-c1ccccc1C(F)(F)F` [Example 148, (10-{[2-Methyl-2′-(trifluoromethyl)[1,1′-biphenyl]-4-yl]carbonyl}-10,11-dihydro-5H-pyrrolo[2,1-c][1,4]benzodiazepin-3-yl)[4-(1-pyrrolidinyl)-1-piperidinyl]methanone] has an inhibition at 0.1 µM of -9%.
`COc1cc2c(cc1OC)N(C(=O)c1ccc(-c3ccccc3C(F)(F)F)c(C)c1)Cc1ccc(C(=O)N(C)CCCN(C)C)n1C2.Cl` [Example 13, N-Methyl-[N-(3-dimethylamino)propyl]-7,8-dimethoxy-10-{[2-methyl-2′-(trifluoromethyl)[1,1′-biphenyl]-4-yl]carbonyl}-10,11-dihydro-5H-pyrrolo[2,1-c][1,4]benzodiazepine-3-carboxamide hydrochloride salt] was tested, and the “V1a % inhibition @ 100 nM” value was 4%.
In the case of `COc1cc(C(=O)N2Cc3ccc(C(=O)N4CCC[C@H]4CN4CCCC4)n3Cc3ccccc32)ccc1-c1ccccc1Cl` [Example 33, {[10-(2-Methoxy)-2′-chloro-[1,1′-biphenyl]-4-yl]carbonyl}-[(2S)-[(2-pyrrolidin-1-yl)methyl]pyrrolidin-1-yl]-10,11-dihydro-5H-pyrrolo[2,1-c][1,4]benzodiazepin-3-yl-methanone], the “V1a % inhibition @ 100 nM” value is reported as 68%.
In the case of `COc1cccc(-c2ccc(C(=O)N3Cc4ccc(C(=O)NCCC5CCCN5C)n4Cc4ccccc43)cc2C)c1` (stereo not drawn) [Example 164, 10-[(3′-Methoxy-2-methyl[1′1′-biphenyl]-4-yl)carbonyl]-N-[2-(1-methyl-2-pyrrolidinyl)ethyl]-10,11-dihydro-5H-pyrrolo[2,1-c][1,4]benzodiazepine-3-carboxamide], the “V1a % inhibition @ 100 nM” value is reported as 23%.
`COc1ccccc1-c1ccc(C(=O)N2Cc3ccc(C(=O)N4CCC[C@H]4CN4CCCC4)n3Cc3ccccc32)cc1C` [Example 259, {10-[(2′-Methoxy-2-methyl[1,1′-biphenyl]-4-yl)carbonyl]-10,11-dihydro-5H-pyrrolo[2,1-c][1,4]benzodiazepin-3-yl}[(2S)-2-(1-pyrrolidinylmethyl)pyrrolidinyl]methanone] was tested, and the “V1a % inhibition @ 100 nM” value was 21%.
For `COc1cccc(-c2ccc(C(=O)N3Cc4ccc(C(=O)N5CCN(CCN(C)C)CC5)n4Cc4ccccc43)cc2C)c1` [Example 199, {4-[2-(Dimethylamino)ethyl]-1-piperazinyl{}10-[(3′-methoxy-2-methyl[1,1′-biphenyl]-4-yl)carbonyl]-10,11-dihydro-5H-pyrrolo[2,1-c][1,4]benzodiazepin-3-yl}methanone], the “V1a % inhibition @ 100 nM” value was 23%.

Source: patent US7109193B2, “Tricyclic diazepines tocolytic oxytocin receptor antagonists” (Wyeth, priority 2001, dated 2006)
